{"source": "paper PMC5761471", "about": "(Journal of Pharmaceutical Analysis, 2014)", "key": {"[1]": {"conditions": "cited from earlier work"}, "[2]": {"experiment": "Stability of standard stock solutions", "type": "physicochemical", "conditions": "stock solution in methanol, 25 °C"}, "[3]": {"experiment": "Stability of raltegravir in spiked human plasma and processed extracts", "type": "in vitro ADME", "conditions": "n=6"}, "[4]": {"experiment": "Bioequivalence study, oral 400 mg raltegravir tablets", "type": "in vivo, human", "conditions": "healthy Indian subjects"}, "[5]": {"conditions": "stated, not tested in this paper; cited from earlier work"}, "[6]": {"conditions": "Bench-top, room temperature (25 °C), 8 h, nominal 6.0 ng/mL"}, "[7]": {"conditions": "Bench-top, room temperature (25 °C), 8 h, nominal 5000 ng/mL"}, "[8]": {"conditions": "Dry extract in deep freezer at −20 °C for 65 h, nominal 6.0 ng/mL"}, "[9]": {"conditions": "Dry extract in deep freezer at −20 °C for 65 h, nominal 5000 ng/mL"}, "[10]": {"conditions": "Freeze-thaw after 5th cycle at −20 °C, nominal 6.0 ng/mL"}, "[11]": {"conditions": "Freeze-thaw after 5th cycle at −20 °C, nominal 5000 ng/mL"}, "[12]": {"conditions": "Freeze-thaw after 5th cycle at −70 °C, nominal 6.0 ng/mL"}, "[13]": {"conditions": "Freeze-thaw after 5th cycle at −70 °C, nominal 5000 ng/mL"}, "[14]": {"conditions": "Long-term at −20 °C for 42 days, nominal 6.0 ng/mL"}, "[15]": {"conditions": "Long-term at −20 °C for 42 days, nominal 5000 ng/mL"}, "[16]": {"conditions": "Long-term at −70 °C for 42 days, nominal 6.0 ng/mL"}, "[17]": {"conditions": "Long-term at −70 °C for 42 days, nominal 5000 ng/mL"}, "[18]": {"conditions": "Wet extract (autosampler) at 4 °C for 65 h, nominal 6.0 ng/mL"}, "[19]": {"conditions": "Wet extract (autosampler) at 4 °C for 65 h, nominal 5000 ng/mL"}, "[20]": {"conditions": "Wet extract at 25 °C for 4 h, nominal 6.0 ng/mL"}, "[21]": {"conditions": "Wet extract at 25 °C for 4 h, nominal 5000 ng/mL"}}, "data": [{"compound": "Cc1nnc(C(=O)NC(C)(C)c2nc(C(=O)NCc3ccc(F)cc3)c(O)c(=O)n2C)o1", "note": "[raltegravir]", "values": [{"measurement": "increase of area under the plasma-time curve (AUC) with a high fat meal", "setting": "[1]", "value": "about 19%"}, {"measurement": "short-term stability of stock solution (stable up to)", "setting": "[2]", "value": "up to 8 h"}, {"measurement": "Change", "setting": "[3]; [6]", "value": 7.17, "unit": "%"}, {"measurement": "Mean stability sample ±SD", "setting": "[3]; [6]", "value": "6.43 ± 0.15", "unit": "ng/mL"}, {"measurement": "Change", "setting": "[3]; [7]", "value": "−5.81", "unit": "%"}, {"measurement": "Mean stability sample ±SD", "setting": "[3]; [7]", "value": "4709.67 ± 72.69", "unit": "ng/mL"}, {"measurement": "Change", "setting": "[3]; [8]", "value": 3.83, "unit": "%"}, {"measurement": "Mean stability sample ±SD", "setting": "[3]; [8]", "value": "6.23 ± 0.25", "unit": "ng/mL"}, {"measurement": "Change", "setting": "[3]; [9]", "value": "−2.52", "unit": "%"}, {"measurement": "Mean stability sample ±SD", "setting": "[3]; [9]", "value": "4874.00 ± 183.04", "unit": "ng/mL"}, {"measurement": "Change", "setting": "[3]; [10]", "value": 2.83, "unit": "%"}, {"measurement": "Mean stability sample ±SD", "setting": "[3]; [10]", "value": "6.17 ± 0.22", "unit": "ng/mL"}, {"measurement": "Change", "setting": "[3]; [11]", "value": "−4.54", "unit": "%"}, {"measurement": "Mean stability sample ±SD", "setting": "[3]; [11]", "value": "4773.50 ± 106.40", "unit": "ng/mL"}, {"measurement": "Change", "setting": "[3]; [12]", "value": 2.83, "unit": "%"}, {"measurement": "Mean stability sample ±SD", "setting": "[3]; [12]", "value": "6.17 ± 0.24", "unit": "ng/mL"}, {"measurement": "Change", "setting": "[3]; [13]", "value": "−3.90", "unit": "%"}, {"measurement": "Mean stability sample ±SD", "setting": "[3]; [13]", "value": "4804.83 ± 218.23", "unit": "ng/mL"}, {"measurement": "Change", "setting": "[3]; [14]", "value": "−1.00", "unit": "%"}, {"measurement": "Mean stability sample ±SD", "setting": "[3]; [14]", "value": "5.94 ± 0.26", "unit": "ng/mL"}, {"measurement": "Change", "setting": "[3]; [15]", "value": "−3.12", "unit": "%"}, {"measurement": "Mean stability sample ±SD", "setting": "[3]; [15]", "value": "4844.00 ± 247.40", "unit": "ng/mL"}, {"measurement": "Change", "setting": "[3]; [16]", "value": 3.33, "unit": "%"}, {"measurement": "Mean stability sample ±SD", "setting": "[3]; [16]", "value": "6.20 ± 0.23", "unit": "ng/mL"}, {"measurement": "Change", "setting": "[3]; [17]", "value": "−2.77", "unit": "%"}, {"measurement": "Mean stability sample ±SD", "setting": "[3]; [17]", "value": "4861.50 ± 315.59", "unit": "ng/mL"}, {"measurement": "Change", "setting": "[3]; [18]", "value": 4.00, "unit": "%"}, {"measurement": "Mean stability sample ±SD", "setting": "[3]; [18]", "value": "6.24 ± 0.28", "unit": "ng/mL"}, {"measurement": "Change", "setting": "[3]; [19]", "value": "−3.24", "unit": "%"}, {"measurement": "Mean stability sample ±SD", "setting": "[3]; [19]", "value": "4838.17 ± 209.68", "unit": "ng/mL"}, {"measurement": "Change", "setting": "[3]; [20]", "value": 3.83, "unit": "%"}, {"measurement": "Mean stability sample ±SD", "setting": "[3]; [20]", "value": "6.23 ± 0.25", "unit": "ng/mL"}, {"measurement": "Change", "setting": "[3]; [21]", "value": "−0.81", "unit": "%"}, {"measurement": "Mean stability sample ±SD", "setting": "[3]; [21]", "value": "4959.33 ± 287.84", "unit": "ng/mL"}, {"measurement": "time required to reach peak plasma concentration", "setting": "[4]; single 400 mg oral dose, fasting", "value": "~ 2 h"}]}, {"compound": "Cc1nnc(C(=O)NC(C)(C)c2nc(C(=O)NCc3ccc(F)cc3)c(O[C@@H]3O[C@H](C(=O)O)[C@@H](O)[C@H](O)[C@H]3O)c(=O)n2C)o1", "note": "[RAL-Glu, raltegravir glucuronide]", "values": [{"measurement": "presence of circulating metabolite in plasma of subject samples", "setting": "[4]; up to 4 h after oral administration of the drug", "value": "complete absence"}, {"measurement": "pharmacological activity", "setting": "[5]", "value": "pharmacologically inactive"}]}]}
